System: Plasmodium falciparum
Test: GSK_TCMDC: Inhibition of Plasmodium falciparum 3D7 in whole erythrocytes, using parasite LDH activity as an index of growth.
Assay type: functional, organism-based
Details: Plasmodium falciparum, 3D7

Structure (SMILES) | XC50
COc1cccc(Nc2nc(C)cc(NC3CCCC3)n2)c1 | 1110 nM
CCOC(=O)c1ccc(NC(=O)N[C@@H](Cc2ccc(O)cc2)C(=O)NC2CCN(Cc3ccc4c(c3)OCO4)CC2)cc1 | 1060 nM
O=C(OCC1CCN(Cc2ccccc2)C1)c1ccc(Cl)cc1 (stereo not given) | 680 nM
COc1cc(C(C)C)nc2ccc(NC(=O)c3ccc(C(=O)Nc4ccc5nc(C(C)C)cc(OC)c5c4)cc3)cc12 | 579 nM
O=C(Nc1cccc(Cl)c1)OC1CCCN2CCCCC12 (stereo not given) | 1020 nM
O=C(/C=C/c1ccc(Cl)c(Cl)c1)NCCCCCN1CCCN(C(=O)Nc2cc(Cl)nc(Cl)c2)CC1 | 786 nM
O=C(Nc1ccc2c(c1)CCN2C1CCN(Cc2ccc(O)cc2)C1)c1ccco1 (stereo not given) | 897 nM
CN1CCN(c2ccc(-c3cccc(NC(=O)c4ccc5ccccc5c4)c3)nn2)CC1 | 383 nM
Cc1cc(NCCC(=O)NCCOc2ccccc2)nc(NCCc2ccc(F)cc2)n1 | 940 nM
Cc1cccc2nc(-c3cccc(-c4ccc(CNCc5cnn(-c6ccccc6)n5)cc4)c3)[nH]c12 | 921 nM
NC1CCN(Cc2cccc(-c3ccc(-c4nc5ccccc5[nH]4)s3)c2)C1 (stereo not given) | 727 nM
CCn1c(Sc2ccc([N+](=O)[O-])c(C#N)c2)nnc1-c1ccc(Cl)cc1 | 1000 nM
CCCCCN1C(=O)C(c2ccccc2)(c2ccccc2)N=C1N | 793 nM
Cc1cccc2c(C3CCN(CC4CCC(NC(=O)/C=C/c5ccc(Cl)c(Cl)c5)CC4)CC3)c[nH]c12 (stereo not given) | 1030 nM
O=S(=O)(Nc1ccc(CCN2CCC(N3CCCCC3)CC2)cc1)c1cccc(C(F)(F)F)c1 | 702 nM
CCCCNC(=O)c1[nH]c2c(NC(=O)COc3ccccc3)cccc2c1-c1cccc(NC(=O)C(N)CO)c1 (stereo not given) | 852 nM
Cc1cc(C(=O)NCc2ccc(-c3c(C)noc3C)cc2)n(-c2ccccc2)n1 | 825 nM
CCCCCN1CCCCC(NS(=O)(=O)c2ccc(C(=O)Nc3ccc(C(F)(F)F)cc3)cc2)C1 (stereo not given) | 768 nM
O=[N+]([O-])c1ccccc1C=NN=c1cc[nH]c2ccccc12 | 863 nM
CC1CN(S(=O)(=O)c2ccc(NC(=O)c3cc(-c4ccccc4O)n[nH]3)cc2)CC(C)O1 (stereo not given) | 832 nM
CC1(C)NC(N)=NC(=N)N1OCCSCCON1C(=N)N=C(N)NC1(C)C | 50.6 nM
Cc1cccc2nc(-c3ccc(-c4cccc(NC(=O)Nc5ccc(F)c(F)c5F)c4)cc3)[nH]c12 | 338 nM
CN(C)Cc1cccc(-c2ccc(NC(=O)c3ccc4c(=O)n(Cc5ccoc5)cnc4c3)cc2)c1 | 770 nM
Cc1[nH]c2ccccc2c1CC1CCN(CC2CCN(C(=O)/C=C/c3ccc(Cl)c(Cl)c3)CC2)CC1 | 950 nM

Structure (SMILES) | XC50
CC(=O)C=C1CC(=O)N(C[C@@H](O)[C@H]2O[C@@H]3OC(C)(C)O[C@@H]3[C@H]2O)c2ccccc2N1 | 1260 nM
O=C(Nc1cccc(CN2CCCN(Cc3ccc(O)cc3)CC2)c1)c1cc(F)cc(F)c1 | 658 nM
N=C(N)Nc1ccc(OCCCCCOc2ccc(NC(=N)N)c(Cl)c2)cc1Cl | 857 nM
CC(C)C[C@H](NC(=O)c1cc2ccccc2s1)C(=O)N[C@H]1CCN(Cc2ccc(OCCN3CCNCC3)c3ccccc23)C1 | 1420 nM
CC1Cc2ccccc2N1CC(=O)Nc1cc(C(F)(F)F)ccc1-n1cncn1 (stereo not given) | 321 nM
O=C(/C=C/c1ccc(Cl)c(Cl)c1)NCCCCCN1CCC(CCNC(=O)/C=C/c2ccc(Cl)c(Cl)c2)CC1 | 561 nM
CCCc1c(C(=O)Nc2ccc3c(c2)CCN(C2CCC2)CC3)cnn1-c1ccc(Cl)cc1 | 858 nM
CN1CCCC1CCOc1ccc2c(c1)N(C(=O)Nc1cc(Br)cc(C(F)(F)F)c1)CC2 (stereo not given) | 247 nM
COc1ccc2ccc(F)c(CC(=O)N3CCOC(CNCc4cccc(-c5ccsc5)n4)C3)c2n1 (stereo not given) | 1170 nM
O=C(Nc1ccc(Cl)cc1)Nc1cccc(-c2ccc(-c3nc4ccccc4[nH]3)cc2)c1 | 928 nM
c1ccc(CN2CCC(NCc3ccccc3-c3ccc(CNC4CCCC4)cc3)CC2)cc1 | 912 nM
CN1CCCC1CCNc1ncc2c(-c3ccc(NC(=O)Nc4cc(C(F)(F)F)ccc4F)cc3)nn(C)c2n1 (stereo not given) | 344 nM
Cc1cc(CN2CC[C@H](NC(=O)c3ccc(Cl)c(Cl)c3)C2)ccc1OC1CCN(Cc2ccccc2)CC1 | 906 nM
COc1ccc(Nc2nccc(NCC(O)c3cccc(C(F)(F)F)c3)n2)cc1 (stereo not given) | 886 nM
CC(=O)Nc1nc(N)c2c(ccc3c2ccn3CC(C)C)n1 | 69.6 nM
CCCNC(=O)C1Cc2c([nH]c3cc(Br)ccc23)C2(CCN(CCc3ccccc3)CC2)N1 (stereo not given) | 972 nM
CN(CCN)Cc1cccc(-c2cccc(-c3nc4cc(C(F)(F)F)ccc4[nH]3)c2)c1 | 509 nM
CN(C)CCC1CCN(CCS(=O)(=O)c2cccc(Nc3ncc(-c4cccc(F)c4)cn3)c2)CC1 | 1060 nM
NC(=O)c1cccc(C(=O)Nc2ccc(-c3cccc(-c4nc5cc(F)ccc5[nH]4)c3)cc2)c1 | 865 nM
Cc1noc(C)c1-c1cccc(CNCc2cccc(-c3ccc(-c4nc5cccc(C)c5[nH]4)s3)c2)c1 | 211 nM
COc1ccc(C2(CNCC(O)c3cccc([N+](=O)[O-])c3)CCCCC2)cc1OC (stereo not given) | 957 nM
O=C(/C=C/c1ccc(C(F)(F)F)cc1)NCCCCCN1CCCN(C(=O)Nc2ccc(F)c(Cl)c2)CC1 | 368 nM
Cc1ccccc1C1CCN(C2CCC(NC(=O)/C=C/c3ccccc3C(F)(F)F)CC2)CC1 (stereo not given) | 1410 nM
Cc1ccccc1C1CCN(C2CCC(NC(=O)c3cncc(-c4ccccc4)c3)CC2)CC1 (stereo not given) | 930 nM

Structure (SMILES) | XC50
Cc1cccc2nc(-c3ccc(-c4ccc(NC(=O)NCc5cccc(F)c5)cc4)cc3)[nH]c12 | 1300 nM
Cc1ccc(CC(C)NCC(O)c2cccc(Br)c2)cc1 (stereo not given) | 802 nM
Cc1ccc(F)cc1S(=O)(=O)Nc1ccc(CCN2CCC(N3CCCCC3)CC2)cc1 | 719 nM
c1ccc(COc2ccccc2COc2ccccc2-c2ccc3cccnc3n2)cc1 | 921 nM
CCCC/C=C(\Cl)c1ccc(O)c2c1C[C@H]1C[C@H]3[C@H](N(C)C)C(O)=C(C(N)=O)C(=O)[C@@]3(O)C(O)=C1C2=O | 1090 nM
O=C(Nc1ccc(Cl)cc1)c1cccc(S(=O)(=O)NC2CCN(CC3CCCCC3)CC2)c1 | 722 nM
Cc1cccc2nc(-c3ccc(-c4ccc(CNCc5cnn(-c6ccccc6)n5)cc4)cc3)[nH]c12 | 428 nM
Cc1ccc(C)c(CN2CCC(CNC(=O)c3cc4ccc5cccnc5c4[nH]3)CC2)c1 | 993 nM
O=C(Cc1ccc(Cl)cc1)NC1CCN(c2ccnc3cc(Cl)ccc23)C1 (stereo not given) | 226 nM
CC1CC(NCCCNc2cc(=O)c3ccccc3[nH]2)c2cc(Cl)c(Cl)c(Cl)c21 (stereo not given) | 724 nM
c1cc(CN2CCCCC2)cc(-c2csc(-c3nc4ccccc4[nH]3)c2)c1 | 848 nM
CN1CCN(Cc2cc3cc(NC(=O)/C=C/c4cccc(Cl)c4)ccc3s2)CC1 | 273 nM
CC(=NNC(N)=O)C1=C(O)C(c2ccccc2)N(C2CCCCC2)C1=O (stereo not given) | 33 nM
CN1CCN(c2cc3c(Nc4ccc5c(cnn5Cc5ccccc5)c4)ncnc3cn2)CC1 | 1130 nM
O=C(Nc1ccc(Br)cc1)N1CCC(n2c(-c3ccccc3)nc3cccnc32)CC1 | 763 nM
COc1ccc(-c2nc(NC(=O)CSc3ccccc3)sc2C)cc1 | 764 nM
O=C(/C=C/c1ccc(Cl)c(Cl)c1)NCCCCCN1CCC(NC(=O)Nc2cccc(Cl)c2Cl)CC1 | 667 nM
c1cc(CN2CCc3ccccc3CC2)cc(-c2c[nH]c3nc(NC4CCCC4)ncc23)c1 | 800 nM
CC(C)CC(NC(=O)c1ccc(F)cc1)C(=O)N[C@H](/C=N/N1CCNC1=O)CC(C)C (stereo not given in full) | 1030 nM
c1ccc(CN2CCC(NCc3cccc(-c4cncc5ccccc45)c3)CC2)cc1 | 1360 nM
CN1CCc2ccc(NC(=O)Nc3cccc(C(=O)c4ccccc4)c3)cc2C1 | 917 nM
CCSc1ccccc1CON1C(=N)N=C(N)NC1(C)C | 3.2 nM
CCCN1CCN(CCCNc2c3ccccc3nc3ccccc23)CC1 | 547 nM
CC1(C)N=C(N)N=C(N)N1c1ccc(Oc2ccccc2)cc1 | 341 nM

Structure (SMILES) | XC50
O=C(NC1CC1)c1ccc(Nc2nccc(-c3c(-c4cccc(NC(=O)c5c(F)cccc5F)c4)nn4ccccc34)n2)cc1 | 411 nM
O=C(NC1CCCc2ccccc21)[C@@H]1CCCN1C(=O)c1ccc(O)c(-c2ccc(Cl)c(Cl)c2)c1 (stereo not given in full) | 209 nM
CN(C)Cc1ccc(CN2CCN(CCOc3ccc(-c4ccc(Cl)cc4)cc3)CC2)o1 | 1020 nM
CC(O)C(C)(CO)NCc1ccc2c3c(cccc13)-c1ccccc1-2 (stereo not given) | 818 nM
COc1ccc2nccc([C@@H](O)CN3CCC(NC(=O)c4cccc(-c5cc(C)no5)c4)CC3)c2c1 | 345 nM
O=C(/C=C/c1ccc(Cl)c(Cl)c1)NC1C2CCC1CC(CN1CCC(c3c[nH]c4ccccc34)CC1)C2 (stereo not given) | 203 nM
CC(C)CCN1CCCN(Cc2ccc(C(=O)Nc3ccc(F)c(F)c3)cc2)CC1 | 944 nM
CCCN(CCC)C(=O)c1cc(C(=O)N[C@@H](Cc2ccccc2)[C@H](O)CNCc2cccc(OC)c2)cc(N2CCCCS2(=O)=O)c1 | 549 nM
N#Cc1ccc(CN2CCC(Oc3ccc(NC(=O)c4cccs4)cc3)CC2)cc1 | 1030 nM
O=C(NC1CC1)c1ccc(N2CCOc3ccc(Cl)cc32)s1 | 803 nM
COc1ccccc1Cc1nc2ccccc2nc1SCC(=O)Nc1cccc(C(F)(F)F)c1 | 499 nM
Cc1ccc2nc(N(CCCn3ccnc3)C(=O)C=Cc3cccs3)sc2c1 | 1390 nM
Cc1ccc2[nH]c(-c3ccccc3Nc3ccnc4cc(-c5nccs5)ccc34)nc2c1 | 190 nM
CCCC1(NC[C@@H](O)[C@H](Cc2ccccc2)NC(=O)c2cc(NCC)cc(N3CCCCS3(=O)=O)c2)CC1 | 1080 nM
CC(=O)N(C)c1cccc(CNc2cc(C)nc(Nc3ccc(C)cc3)n2)c1 | 996 nM
CC(=O)Nc1ccc2[nH]cc(C3CCN(CC4CCN(C(=O)/C=C/c5ccc(Cl)c(Cl)c5)CC4)CC3)c2n1 | 161 nM
CCCN1CCN(Cc2ccc(C(=O)Nc3ccc(Cl)cc3)cc2)CC1 | 48.5 nM
O=C(c1ccccc1)C1CC1CN1CC=C(c2c[nH]c3ccccc23)CC1 (stereo not given) | 525 nM
O=C(/C=C/c1ccc([N+](=O)[O-])cc1)N1CCC(NS(=O)(=O)c2cccc(C(F)(F)F)c2)CC1 | 847 nM
CCC(=O)c1c(C)n(-c2ncnc3c2nc(C)n3-c2ccc(C)cc2C)c2ccccc12 | 645 nM
Cc1cccc(C(=O)Nc2ccnc(N3CCC(N(C)Cc4cccc(C#N)c4)CC3)c2)c1 | 1100 nM
COc1ccccc1-n1c(SCC(=O)Nc2ccccc2F)nc2cccnc21 | 417 nM
Cc1ccccc1Nc1nc(NCc2ccccc2)nc2ccccc12 | 1020 nM
